As a reminder, the EC50 is the midpoint of the concentration-response curve. Read a high EC50 as lower potency in that assay.

The structures appear in SMILES notation. Some results are limits rather than exact numbers.

One test deals with T1, hGPR119 (Homo sapiens, UniProt Q8TDV5).
T1 construct: expressed in transfected cells; host or cells: CHO
T1 sequence (Q8TDV5 1-335): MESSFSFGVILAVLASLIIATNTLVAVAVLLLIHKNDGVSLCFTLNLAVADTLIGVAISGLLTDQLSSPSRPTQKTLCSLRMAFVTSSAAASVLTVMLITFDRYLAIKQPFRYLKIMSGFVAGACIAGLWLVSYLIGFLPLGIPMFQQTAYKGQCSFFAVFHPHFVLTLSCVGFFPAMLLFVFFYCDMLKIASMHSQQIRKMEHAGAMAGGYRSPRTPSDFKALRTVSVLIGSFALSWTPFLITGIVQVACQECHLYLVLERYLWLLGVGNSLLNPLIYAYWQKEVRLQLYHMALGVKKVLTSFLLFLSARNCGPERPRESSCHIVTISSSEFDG
Kind of test: In vitro cyclic AMP assay (Cisbio dynamic 2 HTRF kit) in CHO-hGPR119 cells. The settings on record: cAMP; for activation at 1 µM: 1 h, compound at 1 μM, 60 min, read-out: Induction (% induction at 1 μM). In kind it is cell-based. A general note: In TR-FRET formats the signal depends on donor and acceptor labels being close together.

The subject of another test is Male C57BL/6 mice. The test can be described thus: Oral glucose tolerance test in C57BL/6 mice. The settings on record: 3 mpk and 10 mpk, glucose 2 g/kg. The test is classed as in vivo. Here is the method: (§1) Male C57BL/6 mice (8-10 weeks) were grouped based on basal glucose levels and animals were fasted for 16 hours. Glucose level of each animal was estimated in blood collected from tail vein before animals were dosed orally with 0.5% Tween 80 and 0.5% NaCMC (vehicle control) and compounds at 3 and 10 mpk (n=5). After 30 minutes of compound dosing, blood glucose was again estimated and 2 g/kg/10 ml (20%) of Glucose solution was administered orally to all the animals. Blood glucose was estimated at 15, 30, 60, 90 and 120 minutes time points after glucose administration. Accu-Check active blood glucose meter was utilised for estimation of blood from tail vein.
Glucose reduction observed in animals treated with compounds of present invention is represented in terms of % AUC reduction. A greater glucose reduction in oral glucose tolerance test indicates the compound's efficacy in this rodent species.

Another test deals with Male SD rats. The test can be described thus: Oral glucose tolerance test in Sprague-Dawley rats. The test is classed as in vivo. The settings on record: 3 mpk and 10 mpk, glucose 2 g/kg. Here is the method:
as §1, with “SD rats” for “C57BL/6 mice”
Glucose reduction observed in animals treated with GPR119 agonists is represented in terms of % AUC reduction. A greater glucose reduction in oral glucose tolerance test indicates the compound's efficacy in this rodent species.

As for `CC(C)c1noc(N2CCC([C@H](C)Oc3nc4ccc(-c5ccc(S(C)(=O)=O)nc5)nc4s3)CC2)n1` [Compound 1082, (S)-3-isopropyl-5-(4-(1-((5-(6-(methylsulfonyl)pyridin-3-yl)thiazolo[5,4-b]pyridin-2-yl)oxy)ethyl)piperidin-1-yl)-1,2,4-oxadiazole], the activation at 1 µM on hGPR119 was found to be 82%. On hGPR119, the EC50 is below 25 nM. Also, the “glucose reduction (% AUC reduction) in oral glucose tolerance test” value (“glucose reduction (% AUC reduction)” below) in the test on Male C57BL/6 mice and in the test with Male SD rats was “significant dose dependent glucose reduction” throughout.
On to `CCCc1cnc(N2CCC([C@H](C)Oc3nc4ccc(-c5ccc(S(C)(=O)=O)nc5)nc4s3)CC2)nc1` [Compound 1099, (S)-5-(6-(methylsulfonyl)pyridin-3-yl)-2-(1-(1-(5-propylpyrimidin-2-yl)piperidin-4-yl)ethoxy)thiazolo[5,4-b]pyridine], for which, on hGPR119, the activation at 1 µM was found to be 81%. The EC50 on hGPR119 is below 25 nM. The “glucose reduction (% AUC reduction)” value in the test on Male C57BL/6 mice and in the test on Male SD rats was “significant dose dependent glucose reduction” each time.
In the case of `CCc1cnc(N2CCC([C@H](C)Oc3nc4ccc(-c5ccnc(F)c5)nc4s3)CC2)nc1` [Compound 1104, (S)-2-(1-(1-(5-ethylpyrimidin-2-yl)piperidin-4-yl)ethoxy)-5-(2-fluoropyridin-4-yl)thiazolo[5,4-b]pyridine], on hGPR119, the activation at 1 µM amounted to 84% and the 50% effective concentration (EC50) was in the range of 25 to 50 nM. Further, the “glucose reduction (% AUC reduction)” value in the test with Male C57BL/6 mice is on record as “significant dose dependent glucose reduction”.
With `CCc1cnc(N2CCC([C@H](C)Oc3nc4ccc(-c5ccc(S(C)(=O)=O)nc5)nc4s3)CC2)nc1` [Compound 1106, (S)-2-(1-(1-(5-ethylpyrimidin-2-yl)piperidin-4-yl)ethoxy)-5-(6-(methylsulfonyl)pyridin-3-yl)thiazolo[5,4-b]pyridine], at hGPR119, the activation at 1 µM is 75% and the EC50 is below 25 nM. Further, in the test with Male C57BL/6 mice, the “glucose reduction (% AUC reduction)” value is listed as “significant dose dependent glucose reduction”. In the test on Male SD rats, the “glucose reduction (% AUC reduction)” value is given as “significant dose dependent glucose reduction”.
Consider `CC(C)c1noc(N2CCC([C@H](C)Oc3nc4ccc(-c5cnc(Cl)nc5)nc4s3)CC2)n1` [Compound 1119, (S)-5-(4-(1-((5-(2-chloropyrimidin-5-yl)thiazolo[5,4-b]pyridin-2-yl)oxy)ethyl)piperidin-1-yl)-3-isopropyl-1,2,4-oxadiazole], for which, at hGPR119, the activation at 1 µM was 75% and the concentration giving a half-maximal response (EC50) is below 25 nM. In the test with Male C57BL/6 mice, the “glucose reduction (% AUC reduction)” value was “significant dose dependent glucose reduction”. Moreover, the “glucose reduction (% AUC reduction)” value with Male SD rats is “significant dose dependent glucose reduction”.
Take `CC(Oc1nc2ccc(-c3ccc(S(C)(=O)=O)cc3)nc2s1)C1CCN(c2ncc(Cl)cn2)CC1` (centres unmarked) [Compound 1120, 2-(1-(1-(5-chloropyrimidin-2-yl)piperidin-4-yl)ethoxy)-5-(4-(methylsulfonyl)phenyl)thiazolo[5,4-b]pyridine]: on hGPR119, the activation at 1 µM is 40%. In the test with Male C57BL/6 mice, the “glucose reduction (% AUC reduction)” value is listed as “significant dose dependent glucose reduction”.
As to `CCc1cnc(N2CCC([C@H](C)Oc3nc4ccc(-c5cnc(Cl)nc5)nc4s3)CC2)nc1` [Compound 1135, 2-((S)-1-(1-(5-ethylpyrimidin-2-yl)piperidin-4-yl)ethoxy)-5-(2-chloropyrimidin-5-yl)thiazolo[5,4-b]pyridine], at hGPR119, the activation at 1 µM was 86% and the EC50 was below 25 nM. Further, the “glucose reduction (% AUC reduction)” value in the test with Male C57BL/6 mice is listed as “significant dose dependent glucose reduction”. Also, the “glucose reduction (% AUC reduction)” value in the test on Male SD rats was “significant dose dependent glucose reduction”.
Take `CC(C)c1noc(N2CCC(C(C)Oc3nc4ccc(-c5ccc(S(C)(=O)=O)cn5)nc4s3)CC2)n1` (centres unmarked) [Compound 1161, 2-(1-(1-(3-isopropyl-1,2,4-oxadiazol-5-yl)piperidin-4-yl)ethoxy)-5-(5-(methylsulfonyl)pyridin-2-yl)thiazolo[5,4-b]pyridine]: on hGPR119, the activation at 1 µM came to 69%.
As for `CC(C)c1noc(N2CCC(C(C)Oc3nc4cnc(-c5ccc(S(C)(=O)=O)nc5)nc4s3)CC2)n1` (centres unmarked) [Compound 1162, 2-(1-(1-(3-isopropyl-1,2,4-oxadiazol-5-yl)piperidin-4-yl)ethoxy)-5-(6-(methylsulfonyl)pyridin-3-yl)thiazolo[5,4-d]pyrimidine], on hGPR119, the activation at 1 µM came out at 62%.
Still for that read-out and setting: the same measure for `COCc1cnc(N2CCC(C(C)Oc3nc4ccc(-c5ccc(S(C)(=O)=O)nc5)nc4s3)CC2)nc1` (centres unmarked) [Compound 1163, 2-(1-(1-(5-(methoxymethyl)pyrimidin-2-yl)piperidin-4-yl)ethoxy)-5-(6-(methylsulfonyl)pyridin-3-yl)thiazolo[5,4-b]pyridine]: 63%; for `COCc1cnc(N2CCC([C@@H](C)Oc3nc4ccc(-c5ccc(S(C)(=O)=O)nc5)nc4s3)CC2)nc1` [Compound 1165, 2-((R)-1-(1-(5-(methoxymethyl)pyrimidin-2-yl)piperidin-4-yl)ethoxy)-5-(6-(methylsulfonyl)pyridin-3-yl)thiazolo[5,4-b]pyridine]: 70%.
Regarding `C[C@H](Oc1nc2ccc(-c3ccc(S(C)(=O)=O)nc3)nc2s1)C1CCN(c2ncc(C(F)(F)F)cn2)CC1` [Compound 1166, 2-((S)-1-(1-(5-(trifluoromethyl)pyrimidin-2-yl)piperidin-4-yl)ethoxy)-5-(6-(methylsulfonyl)pyridin-3-yl)thiazolo[5,4-b]pyridine], on hGPR119, the activation at 1 µM came to 70%.
In the case of `CC(C)c1noc(N2CCC([C@H](C)Oc3nc4ccc(-c5ccc(S(C)(=O)=O)nc5F)nc4s3)CC2)n1` [Compound 1167, 2-((S)-1-(1-(3-isopropyl-1,2,4-oxadiazol-5-yl)piperidin-4-yl)ethoxy)-5-(2-fluoro-6-(methylsulfonyl)pyridin-3-yl)thiazolo[5,4-b]pyridine], the activation at 1 µM at hGPR119 came out at 20%.
On to `Cc1cc(S(C)(=O)=O)ccc1-c1ccc2nc(O[C@H](C)C3CCN(c4nc(C(C)C)no4)CC3)sc2n1` [Compound 1169, 2-((R)-1-(1-(3-isopropyl-1,2,4-oxadiazol-5-yl)piperidin-4-yl)ethoxy)-5-(2-methyl-4-(methylsulfonyl)phenyl)thiazolo[5,4-b]pyridine], for which, at hGPR119, the activation at 1 µM amounted to 43%.
